Values of other authors in US20080131879A1, “Detection of Subjects at Risk For Chd By a Genotype Evaluation Associated With Serum Plant Sterols Enabling Individualized (Drug) Treatment on Demand” (University Van Maastricht, priority 2004, published 2008).

Settings: intestinal absorption from diet

Compound | Absorption [%]
CC(C)[C@H](C)CC[C@@H](C)[C@H]1CC[C@H]2[C@@H]3CC=C4C[C@@H](O)CC[C@]4(C)[C@H]3CC[C@]12C [campesterol] | 1.89
CC[C@H](CC[C@@H](C)[C@H]1CC[C@H]2[C@@H]3CC=C4C[C@@H](O)CC[C@]4(C)[C@H]3CC[C@]12C)C(C)C [sitosterol] | 0.51
